Tests used:
[1] = tested on: patients undergoing chronic hemodialysis; test: Historical cohort study of mortality and survival in chronic hemodialysis patients on intravenous paricalcitol or calcitriol; assay type: in vivo, human; details: for Mortality rate (deaths/person-years): 36-month follow-up after initiation of injectable vitamin D; for Number of deaths: 36-month follow-up, paricalcitol 18,430 person-years, calcitriol 22,057 person-years; for Crude survival at one year / Crude survival at three years / Crude survival at two years: Kaplan-Meier; for Mortality risk according to quintiles of base line PTH / Mortality risk according to quintiles of base line serum calcium: model adjusted for all covariates; for HR (mortality): reference calcitriol
Procedure: An historical cohort study was conducted of patients undergoing chronic hemodialysis in Fresenius Medical Care (FMC) dialysis facilities in the United States. Patients who initiated treatment with either paricalcitol or calcitriol beginning Jan. 1, 1999 or after, and who remained exclusively on that intravenous vitamin D formulation until the conclusion of the follow-up period on Dec. 31, 2001, were included in this study. Patients were excluded if they received any form of intravenous vitamin D prior to Jan. 1, 1999 or if they switched from one injectable vitamin D formulation to another during the study period. Patients treated exclusively with other intravenous vitamin D formulations were not studied because of small sample sizes in those groups.
The FMC data system is an Oracle database populated by the individual clinical data systems employed in each individual FMC dialysis facility. The database contains demographic, laboratory, hospitalization, and mortality information as well as detailed records of the treatments administered during each hemodialysis run since January 1995. All data were collected prospectively as part of routine patient care in over 1000 dialysis facilities throughout the United States. For this study, no additional data were retrospectively abstracted from medical records.
Upon a patient's admission to an FMC facility, demographic information including age, gender, race, date of first dialysis, cause of end stage renal disease, and diabetes status were entered into the system. Subsequently, hemodialysis prescription, laboratory tests, and injectable medications were recorded daily. Centralized labs utilized by all FMC facilities performed laboratory tests using standardized assays. Laboratory test results were automatically downloaded from the centralized laboratory to the FMC data system, minimizing the possibility of data entry errors.
Records of all medicines administered during hemodialysis included date of administration, medication name, dose, and route of administration. This information was collected and uploaded into a central database on a daily basis, and underwent routine quality assessment and control measures because of their link with billing systems. This permitted restriction of the analysis to those who initiated and remained on a single vitamin D formulation during the study period. Whenever a patient missed a hemodialysis treatment, a temporary absence or permanent discharge must be recorded in the system by the facility staff in order to complete the daily reconciliation of prescribed verses administered treatments. Therefore, all patient deaths, including date and cause of death (ICD-9 coded), were recorded in the database by the individual facilities as one type of permanent discharge. In addition, all hospitalizations are recorded as temporary absences, even if no dialysis treatment was missed. Data entered by the individual facilities underwent continuous quality improvement assessment to ensure their accuracy and completeness.
The base line for each individual patient was defined as within a three-month period before starting on paricalcitol or calcitriol. Base line laboratory values were obtained by averaging all values in the three months prior to initiating vitamin D therapy. Quintiles of base line serum calcium and phosphate levels were determined by aggregating values of all patients in the three year time period. Because of known lot-to-lot drifts in parathyroid hormone (PTH) assays, serum levels of PTH were categorized by yearly quintiles, and comparative quintiles across years were combined for the analysis.
Patient “vintage” was determined as the number of days from the initiation of chronic hemodialysis to the first day paricalcitol or calcitriol was administered. This covariate was examined both as a continuous and a categorical variable. […]

[2] = tested on: cells; details: in vitro; compared with paricalcitol; independent of serum calcium, phosphate, PTH; cited from earlier work
[3] = tested on: uremic rats; details: cited from earlier work
[4] = tested on: patients; details: compared with injectable calcitriol (Calcijex); cited from earlier work
[5] = tested on: patients undergoing chronic renal dialysis; details: use of paricalcitol; cited from earlier work

Q: With `C=C1/C(=C\C=C2/CCC[C@]3(C)[C@@H]([C@H](C)CCCC(C)(C)O)CC[C@@H]23)C[C@@H](O)C[C@@H]1O` [calcitriol, 1,25 dihydroxycholecalciferol] as the molecule, how does the “Mortality rate (deaths/person-years)” value [1] read?
A: 30.85%

Q: What about the Number of deaths [1] of the same molecule?
A: 6805 deaths

Q: And the “Crude survival at one year” value [1]?
A: 73.7%

Q: And the “Crude survival at three years” value [1]?
A: 44.1%

Q: And the “Crude survival at two years” value [1]?
A: 56.0%

Q: What about the “Mortality risk according to quintiles of base line PTH” value [1] of the same molecule?
A: increased with each successive quintile

Q: And the “Mortality risk according to quintiles of base line serum calcium” value [1]?
A: increased with each successive quintile

Q: What about the “Cell sensitization to injury” value [2] of the same molecule?
A: sensitizes cells to ATP-depletion and iron-mediated injury

Q: With `C[C@H](/C=C/[C@H](C)C(C)(C)O)[C@H]1CC[C@H]2/C(=C/C=C3C[C@@H](O)C[C@H](O)C3)CCC[C@]12C` [paricalcitol, 19-Nor=−1, 25-(OH)2D2] as the molecule, how does the “Mortality rate (deaths/person-years)” value [1] read?
A: 18.54%

Q: And the Number of deaths [1]?
A: 3417 deaths

Q: What about the “HR (mortality), restricted population, adjusted” value ([1]; Caucasian diabetic patients, ages 60-70 years, vintage <100 days, arteriovenous prosthetic graft, 95% CI 0.21-0.82) of the same molecule?
A: 0.42

Q: And the “HR (mortality), restricted population, unadjusted” value ([1]; Caucasian diabetic patients, ages 60-70 years, vintage <100 days, arteriovenous prosthetic graft, 95% CI 0.33-0.85)?
A: 0.53

Q: And the “HR (mortality)” value ([1]; Cox model Case Mix, Study Entry Period, SMR, Dialysis Access, Base-Line Laboratory Values, N 25,471)?
A: 0.73

Q: What about the “HR (mortality)” value ([1]; Cox model Case Mix, Study Entry Period, SMR, Dialysis Access, N 50,572) of the same molecule?
A: 0.70

Q: And the “HR (mortality)” value ([1]; Cox model Case Mix, Study Entry Period, SMR, N 50,572)?
A: 0.69

Q: What about the “HR (mortality)” value ([1]; Cox model Case-Mix and Study Entry Period, N 50,572) of the same molecule?
A: 0.70

Q: What about the “HR (mortality)” value ([1]; Cox model Case-Mix, N 50,572) of the same molecule?
A: 0.61

Q: What about the “HR (mortality)” value ([1]; Cox model Unadjusted, N 50,916) of the same molecule?
A: 0.58

Q: What about the “Crude survival at one year” value [1] of the same molecule?
A: 82.6%

Q: What about the “Crude survival at three years” value [1] of the same molecule?
A: 59.3%

Q: And the “Crude survival at two years” value [1]?
A: 68.6%

Q: What about the “Apparent risk (survival) benefit associated with paricalcitol treatment” value ([1]; after progressive adjustments, vs calcitriol) of the same molecule?
A: ~27%

Q: And the “Mortality risk within each quintile of serum phosphorus” value ([1]; compared with the calcitriol group, adjusted model)?
A: comparatively lower

Q: What about the “Hazard ratio in the final model (Table 3)” value ([1]; final model n=25,471, Ref = calcitriol) of the same molecule?
A: 0.733

Q: And the “Risk reduction for each cause of mortality by ICD-9 codes” value ([1]; infection, neoplasm, cardiovascular, cerebrovascular, other, vs calcitriol, p<0.01)?
A: greater than 50%

Q: And the “Mortality risk according to quintiles of base line PTH” value [1]?
A: significantly lower risk of mortality at all levels of PTH

Q: And the “Mortality risk according to quintiles of base line serum calcium” value [1]?
A: did not appear to have an increased risk of mortality

Q: What about the “Mortality Rate Ratio” value ([1]; paricalcitol vs calcitriol, 95% CI 0.58-0.63, p<0.01) of the same molecule?
A: 0.60

Q: And the “Survival advantage over calcitriol in stratum” value ([1]; patients less than 40 years of age at start, event rate 9%)?
A: did not demonstrate a significant survival advantage

Q: What about the Hypercalcemia or hyperphosphatemia [3] of the same molecule?
A: without producing significant hypercalcemia or hyperphosphatemia

Q: What about the PTH secretion [3] of the same molecule?
A: suppressed PTH secretion

Q: What about the “Incidence of elevated Ca and/or Ca X P levels” value [4] of the same molecule?
A: statistically significantly greater

Q: What about the Adverse effects reported [5] of the same molecule?
A: nausea, vomiting, metallic tastes, chills, fever, sepsis, palpitations, dry mouth, gastrointestinal bleeding, edema, light-headedness and pneumonia

From patent US20040048837A1, “Method for treatment of renal disease” (priority 2002, published 2004)
